Legend:
Format in all cases: cell-based, influenza virus
[1] = test system: Influenza Type A H1N1 (PR8)
[2] = test system: Influenza Type A H9N2 (avian)
[3] = test system: Influenza Type A H3N2 (swine)
[4] = test system: Influenza Type B

Structure (SMILES)	Hemagglutination inhibition concentration [1]	Hemagglutination inhibition concentration [2]	Hemagglutination inhibition concentration [3]	Hemagglutination inhibition concentration [4]
CC(=O)NC1C(O)CC(OCC2CC(O)C(O)C(OC3C(CO)OC(OCCCCCCNC(=O)CCC(=O)OC4OC(COC(=O)CCC(=O)NCCCCCCOC5OC(O)C(OC6OC(COC7(C(=O)O)CC(O)C(NC(C)=O)C([C@@H](O)[C@H](O)CO)O7)CC(O)C6O)C(O)C5O)C(OC(=O)CCC(=O)NCCCCCCOC5OC(CO)C(OC6OC(COC7(C(=O)O)CC(O)C(NC(C)=O)C(C(O)[C@H](O)CO)O7)CC(O)C6O)C(O)C5O)C4OC(=O)CCC(=O)NCCCCCCOC4OC(CO)C(OC5OC(COC6(C(=O)O)CC(O)C(NC(C)=O)C([C@@H](O)[C@H](O)CO)O6)C(O)C(O)C5O)C(O)C4O)C(O)C3O)O2)(C(=O)O)OC1C(O)[C@H](O)CO (stereo partly drawn) [Compound 4]	0.45 mM	2.0 mM	0.85 mM	0.15 mM
CC(=O)N[C@H]1[C@H]([C@H](O)[C@H](O)CO)O[C@@](O[C@H]2[C@@H](O)[C@@H](CO)O[C@@H](O[C@H]3[C@H](O)[C@@H](O)C(O)O[C@@H]3CO)[C@@H]2O)(C(=O)O)C[C@@H]1O (stereo partly drawn) [compound 1, 3′-sialyl lactose]	25 mM	18 mM	20 mM	10 mM
CC(=O)N[C@H]1[C@H]([C@H](O)[C@H](O)CO)O[C@@](OC[C@H]2O[C@@H](O[C@H]3[C@H](O)[C@@H](O)[C@H](O)O[C@@H]3CO)[C@H](O)[C@@H](O)[C@H]2O)(C(=O)O)C[C@@H]1O [compound 2, 6′-sialyl lactose]	12.5 mM	>100 mM	4.5 mM	4.5 mM
